In one data set the target is T1, AtPMT1 (Arabidopsis thaliana, UniProt Q9XIH7).
T1 sequence (Q9XIH7 1-511): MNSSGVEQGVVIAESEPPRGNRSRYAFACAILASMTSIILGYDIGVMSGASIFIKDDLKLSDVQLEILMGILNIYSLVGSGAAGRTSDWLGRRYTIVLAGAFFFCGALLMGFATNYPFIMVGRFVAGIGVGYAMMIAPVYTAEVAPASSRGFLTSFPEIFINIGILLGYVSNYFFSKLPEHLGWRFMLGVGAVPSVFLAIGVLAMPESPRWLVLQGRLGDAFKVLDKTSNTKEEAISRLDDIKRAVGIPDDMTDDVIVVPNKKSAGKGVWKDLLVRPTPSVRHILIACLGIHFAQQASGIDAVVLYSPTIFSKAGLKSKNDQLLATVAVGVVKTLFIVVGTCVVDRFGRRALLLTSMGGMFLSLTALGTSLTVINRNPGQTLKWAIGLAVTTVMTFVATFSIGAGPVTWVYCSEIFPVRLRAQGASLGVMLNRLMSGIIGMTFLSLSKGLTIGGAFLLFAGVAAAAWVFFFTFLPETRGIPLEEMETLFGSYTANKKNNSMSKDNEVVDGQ
The data set can be described thus: competition of […]-sorbitol uptake in transgenic yeast. The format is cell-based. To be noted: pH 5.0.

A further data set concerns the target T2, AtPMT2 (Arabidopsis thaliana, UniProt Q9XIH6).
T2 sequence (Q9XIH6 1-511): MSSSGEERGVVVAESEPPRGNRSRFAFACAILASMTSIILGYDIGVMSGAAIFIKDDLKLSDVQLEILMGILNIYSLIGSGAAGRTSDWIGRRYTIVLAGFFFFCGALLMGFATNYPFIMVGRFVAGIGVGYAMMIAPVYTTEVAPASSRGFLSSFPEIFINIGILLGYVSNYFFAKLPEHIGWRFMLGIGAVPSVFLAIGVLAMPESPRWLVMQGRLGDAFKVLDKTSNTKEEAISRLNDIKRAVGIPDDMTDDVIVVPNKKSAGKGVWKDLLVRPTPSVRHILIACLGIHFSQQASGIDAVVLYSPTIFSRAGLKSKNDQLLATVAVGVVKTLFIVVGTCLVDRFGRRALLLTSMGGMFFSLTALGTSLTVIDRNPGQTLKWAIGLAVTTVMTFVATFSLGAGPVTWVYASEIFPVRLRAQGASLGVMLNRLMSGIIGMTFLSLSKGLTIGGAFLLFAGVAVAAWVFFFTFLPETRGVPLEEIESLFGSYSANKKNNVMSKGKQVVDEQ
Described as above. The format is cell-based. To be noted: pH 5.0.

Substrate in data set [1]: OC[C@@H](O)[C@H](O)[C@@H](O)CO
The data set can be described thus: cells, lysate or membranes. To be noted: 50 mM sodium phosphate pH 5.0, H+ symport.

Substrate in data set [2]: OC[C@@H](O)[C@@H](O)[C@H](O)[C@@H](O)CO
The data set can be described thus: cells, lysate or membranes. To be noted: 50 mM sodium phosphate pH 5.0, H+ symport.

Consider `OC[C@@H](O)[C@@H](O)CO` [erythritol], for which the “uptake of 0.1 mM 14C-sorbitol with 10 mM competitor” value was “In both strains, uptake of sorbitol was strongly reduced in the presence of xylitol” at AtPMT1 and “In both strains, uptake of sorbitol was strongly reduced in the presence of xylitol” on AtPMT2 (10 mM competitor).

With `OC[C@@H](O)[C@@H](O)[C@H](O)[C@@H](O)CO` [sorbitol], on AtPMT2 (10 mM unlabelled sorbitol), the “uptake of 0.1 mM 14C-sorbitol with 10 mM competitor” value is listed as “sorbitol was transported by both cell lines”.

B1: AtPMT2 (Arabidopsis thaliana) (protein)
chain: T2 sequence (Q9XIH6 1-511)
In the case of B1, the Km in data set [1] amounted to 180 ± 10 µM.

B2: AtPMT1 (Arabidopsis thaliana) (protein)
chain: T1 sequence (Q9XIH7 1-511)
B2: the Km was determined as 770 ± 120 µM in data set [2] and 140 ± 20 µM in data set [1].

For the origin of these results see article PMC2803217 (Journal of Experimental Botany, 2009).
